Results: patent US8889721B2, “Clothianidin, metofluthrin, and piperonyl butoxide mixture for bed bug control” (priority 2012, dated 2014)

Tests used:
[1] = test system: Harlan-strain bed bugs; test: Residual exposure to mixtures on wood panels, mortality/morbidity and knockdown (Example 7); format: in vivo, Cimex lectularius; details: for % Morbidity / % Mortality: Residual Efficacy at Day 30
Protocol: (§1) A bioassay was performed to determine the knockdown and mortality rates of bed bugs exposed to the residual of mixtures of clothianidin, metofluthrin, and PBO. Two bed bug (Cimex lectularius) strains were used; Harlan-strain which is susceptible to pyrethroids, and Winston Salem-strain which is known to have a 500-fold resistance level to deltamethrin. In this bioassay, a mixture of clothianidin, metofluthrin, and PBO with fumed silica was compared to combinations of clothianidin and metofluthrin, clothianidin and PBO, and clothianidin.
(§2) Unpainted wood was cut into 6 inch square panels and a DeVries spray booth was used to deliver 1 ml of test substance in an even spray that provided approximately 1 gal/1000 sq. ft. delivery rate. A cone jet nozzle was used approximately 12 inches directly above the wood panels. The panels were allowed to dry and then aged indoors in a climate controlled environment with temperatures ranging from approximately 65 to 72 degrees Fahrenheit. All tests were done in 4 replicates (40 total insects per treatment).
(§3) Insects were fed a blood meal the day prior to testing. The inner walls of Petri dishes were treated with Fluon to prevent the insects from attaching to the sides of the dishes during treatment.
(§4) On the day of testing, 10 insects were placed in each Petri dish. The bed bugs were separated with tweezers and observed to be healthy and active before treatments. The Petri dishes were inverted onto the treated surface and gentle tapping was sometimes used to dislodge the insects from the dishes. After 5 minutes, the insects were returned to containers for mortality/morbidity and knockdown observations.
(§5) Insects were considered moribund when they were knocked down and unable to right themselves when probed. Insects were considered dead when they had no body movement. Untreated controls were handled in the same manner except that they were exposed to water treated wood panels.
(§6) Insects were exposed to the wood panels on day 1 and day 30. Mortality and morbidity observations were taken until the untreated control mortality reached […] (day 7 following exposure).
(§7) The bed bugs were observed and recordings were taken at 10, 20, 30, 60 and 240 minutes following exposure to the wood panels. Table 4 provides the percentage of bed bugs from all 4 replicates (40 total insects per treatment) that were knocked down 10 and 240 minutes after exposure to the wood panels.

[2] = test system: Winston Salem-strain bed bugs; test: as above; format: in vivo, Cimex lectularius
Protocol: as §1, §2, §3, §4, §5, §6, §7

[3] = Residual Efficacy at Day 1, 1 day
[4] = Residual Efficacy at Day 1, 2 day
[5] = Residual Efficacy at Day 1, 3 day
[6] = Residual Efficacy at Day 30, 1 DAT
[7] = Residual Efficacy at Day 30, 2 DAT
[8] = Residual Efficacy at Day 30, 3 DAT
[9] = Residual Efficacy at Day 30, 4 DAT
[10] = Residual Efficacy at Day 30, 5 DAT
[11] = Residual Efficacy at Day 30, 6 DAT
[12] = Residual Efficacy at Day 30, 7 DAT

CN/C(=N\[N+](=O)[O-])NCc1cnc(Cl)s1 [0.4% Cloth.]
Knockdown ([1]; Day 1 @ 10 minutes): 48% | Knockdown ([1]; Day 1 @ 240 minutes): 95% | Knockdown ([1]; Day 30 @ 10 minutes): 20% | Knockdown ([1]; Day 30 @ 240 min): 95% | % Morbidity ([1]; 1 DAT): 75% | % Mortality ([1]; 1 DAT): 23% | % Morbidity ([1]; 2 DAT): 33% | % Mortality ([1]; 2 DAT): 68% | % Morbidity ([1]; 3 DAT): 0% | % Mortality ([1]; 3 DAT): 100% | Knockdown ([2]; Day 1 @ 10 minutes): 0% | Knockdown ([2]; Day 1 @ 240 minutes): 50% | Knockdown ([2]; Day 30 @ 10 minutes): 3% | Knockdown ([2]; Day 30 @ 240 min): 28% | % Morbidity [2, 3]: 18% | % Mortality [2, 3]: 60% | % Mortality + Morbidity [2, 3]: 78% | % Morbidity [2, 4]: 18% | % Mortality [2, 4]: 60% | % Mortality + Morbidity [2, 4]: 78% | % Morbidity [2, 5]: 12.5% | % Mortality [2, 5]: 87.5% | % Mortality + Morbidity [2, 5]: 100% | % Morbidity [2, 6]: 33% | % Mortality [2, 6]: 10% | % Morbidity [2, 7]: 28% | % Mortality [2, 7]: 20% | % Morbidity [2, 8]: 18% | % Mortality [2, 8]: 43% | % Morbidity [2, 9]: 10% | % Mortality [2, 9]: 53% | % Morbidity [2, 10]: 8% | % Mortality [2, 10]: 63% | % Morbidity [2, 11]: 3% | % Mortality [2, 11]: 70% | % Morbidity [2, 12]: 5% | % Mortality [2, 12]: 70%
